Measured values reported in ChEMBL document CHEMBL1201862, “PubChem BioAssay data set” (2004).
Activity calls are given as the source filed them.

Assays:
[1] = target: Ras and Rab interactor 1/Tyrosine-protein kinase ABL1 (Homo sapiens, UniProt P00519+Q13671); type: functional;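 further: biochemical TR-FRET dose-response test measuring inhibition of binding between Rin1 and Abl proteins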
Prothrombin = Prothrombin (Bos taurus, UniProt P00735); experiment: thrombin inhibition, dose response, biochemical, fluorescence polarization, uHTS hits (AID 602369); type: functional
[2] = target: 26S proteasome non-ATPase regulatory subunit 14 (Homo sapiens, UniProt O00487); experiment: inhibition of proteasome subunit RPN11 – biochemical, fluorescence polarization, uHTS hits, confirmation (AID 602368); type: functional
Chain of 26S proteasome non-ATPase regulatory subunit 14 (O00487 whole entry): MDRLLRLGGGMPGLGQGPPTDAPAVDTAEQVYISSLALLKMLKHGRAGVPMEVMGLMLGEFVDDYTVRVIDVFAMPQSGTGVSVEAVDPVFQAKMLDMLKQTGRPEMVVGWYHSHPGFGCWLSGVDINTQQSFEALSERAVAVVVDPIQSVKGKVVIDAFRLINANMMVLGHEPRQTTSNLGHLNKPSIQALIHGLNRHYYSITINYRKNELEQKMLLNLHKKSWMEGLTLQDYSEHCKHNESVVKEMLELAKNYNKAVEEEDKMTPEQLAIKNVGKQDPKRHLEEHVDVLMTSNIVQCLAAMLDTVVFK

[3] = target: 72 kDa type IV collagenase (Homo sapiens, UniProt P08253); experiment: Dose Response validation of uHTS RPN11 inhibitor hits using a MMP-2 Fluorescence assay.; type: functional
Chain of 72 kDa type IV collagenase (P08253 whole entry): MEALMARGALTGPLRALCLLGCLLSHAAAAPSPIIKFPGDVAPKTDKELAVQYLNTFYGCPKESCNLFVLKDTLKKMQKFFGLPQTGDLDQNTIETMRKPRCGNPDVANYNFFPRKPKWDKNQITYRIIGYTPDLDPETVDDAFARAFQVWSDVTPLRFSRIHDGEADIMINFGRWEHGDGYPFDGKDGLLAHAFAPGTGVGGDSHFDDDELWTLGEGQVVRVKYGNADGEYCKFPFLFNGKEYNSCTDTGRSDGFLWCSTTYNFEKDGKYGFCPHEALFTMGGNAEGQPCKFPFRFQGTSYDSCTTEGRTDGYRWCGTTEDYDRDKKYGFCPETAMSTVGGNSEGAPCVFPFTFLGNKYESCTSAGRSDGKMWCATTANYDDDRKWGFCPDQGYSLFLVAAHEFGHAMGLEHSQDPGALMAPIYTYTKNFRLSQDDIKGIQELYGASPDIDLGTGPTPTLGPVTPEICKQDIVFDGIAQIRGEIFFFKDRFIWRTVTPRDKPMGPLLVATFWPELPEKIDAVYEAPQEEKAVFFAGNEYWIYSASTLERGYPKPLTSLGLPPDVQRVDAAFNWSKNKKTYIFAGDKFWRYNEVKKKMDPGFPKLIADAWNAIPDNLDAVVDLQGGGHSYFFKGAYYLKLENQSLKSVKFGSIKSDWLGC

Melanocortin receptor 4 = Melanocortin receptor 4 (Homo sapiens, UniProt P32245); type: functional, cell-based;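 further: Cell-based assay with luminescence read-out, confirmatory dose-response testing for agonist activity of biased ligands at MC4R; human U2OS cells with tagged receptor and beta-arrestin; potency of agonists that increase receptor coupling to beta-arrestin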
Chain of Melanocortin receptor 4 (P32245 whole entry): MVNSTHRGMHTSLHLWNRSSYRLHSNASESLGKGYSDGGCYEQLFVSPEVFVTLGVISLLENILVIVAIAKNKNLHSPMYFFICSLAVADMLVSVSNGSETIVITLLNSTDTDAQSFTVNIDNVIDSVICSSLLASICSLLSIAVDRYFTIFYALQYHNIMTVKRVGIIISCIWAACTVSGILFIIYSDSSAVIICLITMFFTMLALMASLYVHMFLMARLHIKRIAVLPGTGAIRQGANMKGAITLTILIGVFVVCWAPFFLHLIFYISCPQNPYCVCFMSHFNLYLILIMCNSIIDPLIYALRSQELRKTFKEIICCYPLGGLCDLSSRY

Cytochrome P450 3A4 = Cytochrome P450 3A4 (Homo sapiens, UniProt P08684);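 further: CYP3A4 tested as one member of a cytochrome P450 panel screen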
Chain of Cytochrome P450 3A4 (P08684 whole entry): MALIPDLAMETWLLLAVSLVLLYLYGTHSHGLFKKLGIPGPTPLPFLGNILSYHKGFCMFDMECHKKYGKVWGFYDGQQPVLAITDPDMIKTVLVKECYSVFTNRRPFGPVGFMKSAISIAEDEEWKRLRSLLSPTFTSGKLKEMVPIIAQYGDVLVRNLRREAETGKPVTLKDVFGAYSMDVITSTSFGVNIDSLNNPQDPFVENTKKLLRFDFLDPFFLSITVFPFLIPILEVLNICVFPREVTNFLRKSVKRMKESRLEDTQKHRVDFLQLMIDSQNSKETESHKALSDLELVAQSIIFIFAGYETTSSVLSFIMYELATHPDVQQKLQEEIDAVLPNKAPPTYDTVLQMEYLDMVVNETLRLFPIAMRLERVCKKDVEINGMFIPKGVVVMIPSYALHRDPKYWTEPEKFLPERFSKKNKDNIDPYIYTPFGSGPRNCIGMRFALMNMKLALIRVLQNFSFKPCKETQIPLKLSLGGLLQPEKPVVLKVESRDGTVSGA

P388/ADR = experiment: cells; type: functional; details: Mus musculus
P388 = experiment: cells; type: functional; details: Mus musculus
SN12K1 = experiment: cells; type: functional; details: Homo sapiens
[4] = inhibitors of SNCA 5'UTR-driven reporter translation, confirmation, H4 neuroglioma cells, luminescence (AID 1988); type: functional, cell-based
[5] = Luminescence Cell-Based Dose Response HTS to Identify Inhibitors of 5'UTR Stem-Loop Driven Prion Protein mRNA Translation in H4 Neuroglioblastoma Cells. [Related pubchem assays: 1827 (Project Summary), 1813 (Primary HTS)]; type: functional
[6] = inhibitors of firefly luciferase expression or activity, dose response, H4 neuroglioma cells, luminescence (AID 1990); type: functional, cell-based
HEK293 = experiment: inhibitors of LMP1-driven NF-kB reporter, dose response, cell-based, HEK293, luciferase, cherry-pick (AID 588343); type: functional; details: Homo sapiens
[7] = target: Mitochondrial peptide methionine sulfoxide reductase (Bos taurus, UniProt P54149); type: functional;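 further: absorbance read-out, biochemical high-throughput dose-response screen for MsrA inhibitors, confirmatory; recombinant bovine MsrA coupled to E. coli TrxB with NADPH and selenocystamine; potency is for inhibitors of MsrA activity on DMSO substrate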
Chain of Mitochondrial peptide methionine sulfoxide reductase (P54149 whole entry): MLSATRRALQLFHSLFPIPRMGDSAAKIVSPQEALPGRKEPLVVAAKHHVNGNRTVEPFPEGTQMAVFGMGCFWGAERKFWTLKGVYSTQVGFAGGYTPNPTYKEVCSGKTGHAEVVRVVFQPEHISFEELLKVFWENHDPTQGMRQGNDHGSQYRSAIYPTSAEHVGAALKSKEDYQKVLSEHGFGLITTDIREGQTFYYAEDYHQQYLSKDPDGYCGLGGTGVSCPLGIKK

[8] = target: T1, Endoribonuclease toxin MazF (Escherichia coli K-12, UniProt P0AE70); experiment: MazF toxin RNase activators, dose response, biochemical, fluorescence, single-stranded RNA substrate, uHTS hits (AID 588481); type: functional
T1 sequence (P0AE70 whole entry): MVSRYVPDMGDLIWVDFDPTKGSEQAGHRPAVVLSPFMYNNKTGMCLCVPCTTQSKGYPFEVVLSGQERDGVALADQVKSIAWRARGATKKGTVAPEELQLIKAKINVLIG

[9] = target: T1, Endoribonuclease toxin MazF; experiment: fluorescent RNA oligo signal without MazF, dose response, counter-screen for MazEF activator project, biochemical, fluorescence, single-stranded RNase substrate (AID 588502); type: functional
[10] = target: T2, Aryl hydrocarbon receptor (Homo sapiens, UniProt P35869); details: Potency;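 further: confirmatory quantitative high-throughput screen measuring activation of the AhR signaling pathway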
T2 sequence (P35869 whole entry): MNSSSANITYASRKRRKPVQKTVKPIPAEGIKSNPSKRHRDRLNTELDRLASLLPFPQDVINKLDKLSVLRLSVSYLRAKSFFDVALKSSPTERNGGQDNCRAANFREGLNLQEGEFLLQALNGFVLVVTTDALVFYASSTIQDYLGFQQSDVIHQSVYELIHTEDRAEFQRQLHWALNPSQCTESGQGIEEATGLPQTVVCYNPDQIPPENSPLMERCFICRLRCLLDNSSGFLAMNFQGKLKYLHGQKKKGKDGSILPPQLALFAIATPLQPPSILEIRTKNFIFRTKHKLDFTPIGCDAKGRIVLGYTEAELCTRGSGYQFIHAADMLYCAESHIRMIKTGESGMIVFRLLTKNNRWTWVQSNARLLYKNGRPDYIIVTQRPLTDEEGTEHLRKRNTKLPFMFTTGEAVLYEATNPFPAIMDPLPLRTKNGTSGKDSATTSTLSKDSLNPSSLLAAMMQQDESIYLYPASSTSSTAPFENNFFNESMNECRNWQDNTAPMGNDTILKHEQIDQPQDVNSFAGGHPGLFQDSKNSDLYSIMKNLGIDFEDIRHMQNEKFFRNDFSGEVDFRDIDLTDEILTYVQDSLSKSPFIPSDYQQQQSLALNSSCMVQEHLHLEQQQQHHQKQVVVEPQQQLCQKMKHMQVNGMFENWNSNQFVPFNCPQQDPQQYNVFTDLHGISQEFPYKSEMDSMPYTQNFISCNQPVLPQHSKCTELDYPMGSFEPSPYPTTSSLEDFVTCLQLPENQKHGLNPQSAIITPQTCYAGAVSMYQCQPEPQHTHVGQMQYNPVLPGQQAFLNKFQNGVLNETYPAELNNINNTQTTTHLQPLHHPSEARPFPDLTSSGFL

Chain of Ras and Rab interactor 1/Tyrosine-protein kinase ABL1 (P00519 whole entry): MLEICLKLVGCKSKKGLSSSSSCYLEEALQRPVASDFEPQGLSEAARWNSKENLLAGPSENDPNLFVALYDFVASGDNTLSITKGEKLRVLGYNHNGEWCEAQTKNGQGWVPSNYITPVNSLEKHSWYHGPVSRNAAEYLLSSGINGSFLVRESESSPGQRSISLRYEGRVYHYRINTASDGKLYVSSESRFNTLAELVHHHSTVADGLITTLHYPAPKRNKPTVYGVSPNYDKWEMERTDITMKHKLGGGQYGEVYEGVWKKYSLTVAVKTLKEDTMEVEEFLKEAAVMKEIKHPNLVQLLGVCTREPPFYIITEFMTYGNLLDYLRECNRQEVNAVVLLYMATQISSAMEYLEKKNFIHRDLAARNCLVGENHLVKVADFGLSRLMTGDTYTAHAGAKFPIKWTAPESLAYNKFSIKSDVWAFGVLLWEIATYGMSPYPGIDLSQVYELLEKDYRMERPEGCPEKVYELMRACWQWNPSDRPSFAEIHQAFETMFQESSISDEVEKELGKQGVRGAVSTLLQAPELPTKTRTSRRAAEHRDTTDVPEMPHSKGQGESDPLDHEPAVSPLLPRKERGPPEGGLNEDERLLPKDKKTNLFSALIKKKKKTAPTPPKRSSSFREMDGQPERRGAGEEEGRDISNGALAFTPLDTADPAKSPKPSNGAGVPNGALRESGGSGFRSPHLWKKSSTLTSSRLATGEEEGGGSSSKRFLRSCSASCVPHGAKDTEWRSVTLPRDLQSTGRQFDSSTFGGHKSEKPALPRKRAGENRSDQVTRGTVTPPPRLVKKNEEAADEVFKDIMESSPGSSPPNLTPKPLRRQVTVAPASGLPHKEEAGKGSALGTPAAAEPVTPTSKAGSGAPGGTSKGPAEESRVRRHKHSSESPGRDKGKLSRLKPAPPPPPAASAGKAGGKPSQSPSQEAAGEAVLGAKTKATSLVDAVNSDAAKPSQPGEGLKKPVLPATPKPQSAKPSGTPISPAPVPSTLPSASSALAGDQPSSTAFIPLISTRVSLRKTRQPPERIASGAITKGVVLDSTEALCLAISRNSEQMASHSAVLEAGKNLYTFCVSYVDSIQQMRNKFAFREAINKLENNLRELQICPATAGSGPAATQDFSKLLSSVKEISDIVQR
Chain of Ras and Rab interactor 1/Tyrosine-protein kinase ABL1 (Q13671 whole entry): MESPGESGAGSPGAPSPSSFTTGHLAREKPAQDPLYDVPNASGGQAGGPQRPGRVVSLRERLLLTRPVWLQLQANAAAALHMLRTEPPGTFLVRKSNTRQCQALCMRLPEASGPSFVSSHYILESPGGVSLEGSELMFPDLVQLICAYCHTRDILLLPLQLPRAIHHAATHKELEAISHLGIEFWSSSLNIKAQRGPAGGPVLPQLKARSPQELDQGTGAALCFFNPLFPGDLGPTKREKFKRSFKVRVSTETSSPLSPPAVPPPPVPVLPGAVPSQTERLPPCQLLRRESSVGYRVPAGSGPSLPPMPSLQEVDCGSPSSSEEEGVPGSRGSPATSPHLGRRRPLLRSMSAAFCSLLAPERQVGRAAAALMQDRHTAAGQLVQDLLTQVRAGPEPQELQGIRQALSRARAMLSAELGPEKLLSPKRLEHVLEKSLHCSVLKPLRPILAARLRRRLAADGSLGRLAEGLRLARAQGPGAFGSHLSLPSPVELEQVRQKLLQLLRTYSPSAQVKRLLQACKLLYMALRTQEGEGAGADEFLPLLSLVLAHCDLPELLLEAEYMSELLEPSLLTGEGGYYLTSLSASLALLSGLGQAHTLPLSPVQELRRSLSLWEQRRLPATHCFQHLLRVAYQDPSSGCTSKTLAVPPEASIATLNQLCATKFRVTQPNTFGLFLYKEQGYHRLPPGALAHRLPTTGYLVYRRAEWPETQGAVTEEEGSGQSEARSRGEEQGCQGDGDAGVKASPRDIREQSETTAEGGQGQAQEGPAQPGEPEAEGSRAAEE

For `CN(Cc1ccccc1)C(=O)c1ccc(NC(=O)Cc2ccc(NC(=O)C3CCN(C(=O)C4CCCC4)CC3)cc2)cc1`, the IC50 [1] was 20.7 µM (inactive).

For `CCCC/N=c1\scc(-c2ccc3c(c2)NC(=O)CO3)n1N=C1CCCC1`, the IC50 (Prothrombin) was 27.7 µM (active), the IC50 [2] was 26.6 µM (active) and the IC50 [3] was > 100 µM (inactive).

For `CCOc1ccc(C(=O)N/N=C/c2cc(Cl)ccc2[N+](=O)[O-])cc1`, the IC50 (Prothrombin) was 59.3 µM (active), the IC50 [2] was 19.3 µM (active) and the IC50 [3] was > 100 µM (inactive).

In the case of `O=C(N/N=C/c1ccc(OCc2ccccc2)cc1)c1cccs1`, the EC50 (Melanocortin receptor 4) is reported as > 89.2 µM (inactive) and the AC50 (Cytochrome P450 3A4) is reported as 39.8 µM (inconclusive).

With `CC1OC(O[C@@H]2C=C3CC[C@@H]4[C@H](CC[C@]5(C)[C@@H](c6ccc(=O)oc6)CC[C@]45O)[C@@]3(C)CC2)C(O)C(OC2OC(CO)C(O)C(O)C2O)C1O` (stereo partly specified) the GI50 (P388/ADR) was 51.3 µM (inactive), the GI50 (P388) was 45.3 µM (inactive) and the GI50 (SN12K1) was 0.025 µM (active).

For `O=C(N/N=C/c1cccs1)c1[nH]nc2c1CCCC2`, the EC50 [4] was 8.52 µM (active), the EC50 [5] was 9.49 µM (active) and the EC50 [6] was 8.62 µM (inconclusive). For the same compound, the AC50 (HEK293) was 2.39 µM (active).

With `CN(/N=C/C=C/c1ccccc1)c1cc(=O)n(C)c(=O)[nH]1` the IC50 [7] was 155 µM (inactive).

For `O=C(COc1cccc(Cl)c1)N/N=C\c1cc2ccccc2nc1Cl`, the EC50 [8] was > 99 µM (inactive) and the EC50 [9] was > 99 µM (inactive).

In the case of `CON=C(C(=O)OC)c1ccccc1CO/N=C(\C)c1cccc(C(F)(F)F)c1`, the AC50 [10] is reported as 63.1 µM (inconclusive).

In the case of `Cc1ccc(/N=C/N(C)/C=N/c2ccc(C)cc2C)c(C)c1` [AMITRAZ], the AC50 [10] is reported as 50.1 µM (inconclusive).
